Tests used:
Rab GG transferase = target: T1, Rab GG transferase (Rattus norvegicus, UniProt Q08602+Q08603); assay: Inhibition of Rab GG transferase; assay type: biochemical; conditions: FIG. 1C; Rab1A substrate; read-out: IC0.5 Rab GG transferase
T1 construct: purified Components A and B of Rab GG transferase; from tissue
T1 sequence (Q08602 1-567): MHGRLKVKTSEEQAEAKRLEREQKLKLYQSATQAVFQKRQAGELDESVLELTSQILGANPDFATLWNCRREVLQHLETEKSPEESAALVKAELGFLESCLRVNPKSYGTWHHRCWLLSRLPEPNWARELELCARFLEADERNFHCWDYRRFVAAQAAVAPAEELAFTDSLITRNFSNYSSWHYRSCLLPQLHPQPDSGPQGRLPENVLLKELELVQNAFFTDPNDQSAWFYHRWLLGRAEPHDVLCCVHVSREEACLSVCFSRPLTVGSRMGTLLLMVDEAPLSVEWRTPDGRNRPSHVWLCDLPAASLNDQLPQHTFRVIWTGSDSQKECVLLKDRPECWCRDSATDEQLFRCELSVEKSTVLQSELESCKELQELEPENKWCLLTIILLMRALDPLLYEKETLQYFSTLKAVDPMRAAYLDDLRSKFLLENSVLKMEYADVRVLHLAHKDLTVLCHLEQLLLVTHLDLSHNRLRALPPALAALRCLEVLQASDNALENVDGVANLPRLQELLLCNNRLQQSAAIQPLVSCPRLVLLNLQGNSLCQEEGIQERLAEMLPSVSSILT
T1 sequence (Q08603 1-331): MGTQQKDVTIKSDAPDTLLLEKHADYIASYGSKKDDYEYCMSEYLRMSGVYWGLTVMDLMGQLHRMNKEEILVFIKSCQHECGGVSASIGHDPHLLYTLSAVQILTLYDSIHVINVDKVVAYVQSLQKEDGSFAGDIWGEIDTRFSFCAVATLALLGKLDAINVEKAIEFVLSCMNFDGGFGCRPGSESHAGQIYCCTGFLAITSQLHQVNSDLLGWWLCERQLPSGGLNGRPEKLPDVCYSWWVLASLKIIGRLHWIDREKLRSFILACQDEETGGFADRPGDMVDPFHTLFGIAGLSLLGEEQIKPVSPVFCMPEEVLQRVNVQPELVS

[1] = tested on: src-transformed rat-1 fibroblasts; assay: Changes in morphology of src-transformed cells; assay type: cell-based; conditions: FIG. 6C/6D
Procedure: Compound 27A (denoted as BG269A in the figure) and compound 27B (denoted as BG269B in the figure) were added at 250 μM to test whether these compounds would induce reversion to a more normal phenotype as had been previously shown with microinjection of anti-Ras antibodies (see Feramisco, J. R. et al Nature 314, 639 (1985)). The H-ras transformed cells, denoted as rat 2.2 cells, were generated by transfection of rat-1 fibroblasts as described (see Seeburg, P. H., Colby, W. W., Capon, D. J., Goeddel, D. V., and Levinson, A. D. Nature 312,71 (1984)). Cells that overgrew the monolayer were extracted and plated onto agar to obtain a cell line displaying a fully transformed phenotype. Untransformed rat-1 fibroblasts and src-transformed rat-1 fibroblasts were also treated. The src-transformed cells were generated by co-transfection of rat-1 fibroblasts with pSV3.Neo.src, a vector containing the gene for src as well as the gene that confers G418 resistance, both under control of SV40 early promoters. G418-resistant cell clones that diplayed a transformed phenotype were used to generate the cell line. On day 0, cells were plated in monolayer culture at 3×10^3 cells per well (24-well plates) in 1 ml DMEM supplemented with 10% FCS, 100 U/ml penicillin, 10 μg/ml streptomycin, 2% DMSO, and 0.5 mM DTT with and without 200 μM inhibitor. On day 3, the cells were refed with the same medium. […]

MDA-7 cells = assay: Growth inhibition of human tumor line MDA-7; assay type: cell-based; conditions: MDA-7, breast, not ras transformed, read-out: % growth inhib.
Procedure: (§1) To examine the effects of farnesyltransferase inhibition on cell growth, three cell lines (ras-transformed rat-1, src-transformed rat-1, and parental rat-1 cells) were seeded (see FIG. 7) at low density and allowed to grow for 10 days in the absence or presence of increasing concentrations of BZA-5B (compound 37). See Example 128 for description of cells. On day 0, cells were plated in monolayer culture at 2×10^3 cells per well (24-well plates) in 1 ml DMEM supplemented with 10% fetal calf serum, 100 U/ml penicillin, 100 μg/ml streptomycin, 0.5 mM DTT, 0.025% DMSO, and the indicated concentration of BZA-5B (compound 37). On days 3 and 7, cells were washed and refed with the same medium. At the time indicated in FIG. 7, cells were harvested by trypsinization and counted in a Coulter counter. Panels A, C, E show the growth rate of each cell line in the absence of inhibitor. Panels B, D, F show the inhibition of growth as a function of concentration of BZA-5B at each time point. […]
(§2) To examine the effects of farnesyltransferase inhibition on the growth of human tumor cell lines, several such lines were treated with 25 μM BZA-5B (compound 37B) using a procedure similar to that described in Example 129 above. Cells were refed with fresh media at days 3 and 6 containing the inhibitor, and were harvested and counted as described above. […]

SW-480 cells = assay: Growth inhibition of human tumor line SW-480; assay type: cell-based; conditions: SW480, SW-480, colon, ras transformed, read-out: % growth inhib.
Procedure: as §1, §2

Compound	IC50 (Rab GG transferase) [µM]	effect on morphology of src-transformed cells [1]	inhibition at 25 µM (MDA-7 cells) [%]	inhibition at 25 µM (SW-480 cells) [%]
CSCC[C@H](NC(=O)CN1C(=O)C(N(C)C(=O)[C@@H](N)CS)N=C(c2ccccc2)c2ccccc21)C(=O)O (single isomer, unassigned) [27B]	5.5	not affected	–	–
COC(=O)[C@H](CCSC)NC(=O)CN1C(=O)C(N(C)C(=O)[C@@H](N)CS)N=C(c2ccccc2)c2ccccc21 (single isomer, unassigned) [37B]	–	–	0	45
